The record followed here is US7531195B2, “Schisandrin B preparation” (priority 2005, dated 2009).

This assay deals with mitochondria of brain, heart, liver and skeletal muscle. Kind of assay: Mitochondrial antioxidant status in various tissues of young female rats. The note with it: (−) Sch B, α-LA, α-Toc at daily 10, 5 and 70 mg/kg respectively, 15 days. It counts as in vivo, rat. Here is the method:
The dosages were determined with reference to the equivalent amount of crude herb prescribed for human or the daily recommended intake in health supplements. The control animals received olive oil only. Twenty-four hours after the last dose, the pentobarbital-anesthetized animals were sacrificed by cardiac excision, and brain. heart, liver and skeletal muscle tissues were obtained. Tissue samples (brain, heart, liver, and skeletal muscle) were rinsed with ice-cold isotonic buffer (50 mM Tris, 0.32 M sucrose, 1 mM Na2EDTA, 0.2 mg/ml soybean trypsin inhibitor, 0.2 mg/ml bacitracine, 0.16 mg/ml benzamidine). Tissue homogenates were prepared by homogenizing 0.8 g of myocardial tissue in 8 ml ice-cold isotonic buffer and the homogenates were used for the preparation of mitochondrial fractions by differential centrifugation, as described in Chiu and Ko (2004). The mitochondrial pellets were resuspended in 1.5 ml of isotonic buffer containing 150 μl of 2 mg/ml soybean trypsin inhibitor and constituted the mitochondrial fractions. […] (St. Louis, Mo., USA). […] Aliquots (400 μl) of mitochondrial fractions were mixed with 933 μl Triton X-100 solution (0.3%, v/v, in isotonic buffer) and sonicated for 2 min on ice. The mixtures were then subjected to measurements of mitochondrial glutathione reductase (GRD), Se-glutathione peroxidase (GPX) and glutathione S-transferases (GST) activities by spectrophotometric methods, as described in Chiu et al. (2002).

For `COc1cc2c(c(OC)c1OC)-c1c(cc3c(c1OC)OCO3)CC(C)C(C)C2` (single isomer, unassigned; (-)) [(−) Sch B, (−) Schisandrin B], where the note is “BRAIN”, the GPX is on record as 163 ± 9 percent control, the GRD was 150 ± 9 percent control, the GSH is given as 147 ± 4 percent control and the GST was 143 ± 4 percent control. Also, the α-Toc level (BRAIN) came to 141 ± 7 percent control. Where the note is “HEART”, the GPX is reported as 143 ± 7 percent control, the GRD amounted to 163 ± 6 percent control, the GSH worked out at 159 ± 2 percent control and the GST is listed as 161 ± 5 percent control. This compound also yielded a α-Toc level (HEART) of 160 ± 13 percent control. For the setting “LIVER”, the GPX worked out at 135 ± 3 percent control, the GRD came to 161 ± 10 percent control, the GSH stood at 175 ± 5 percent control and the GST is 154 ± 4 percent control. This compound also yielded a α-Toc level (LIVER) of 167 ± 14 percent control. Where the note is “SKELETAL MUSCLE”, this compound gave a GPX of 125 ± 5 percent control, a GRD of 166 ± 4 percent control, a GSH of 137 ± 1 percent control and a GST of 171 ± 10 percent control. Where the note is “SKELETAL MUSCLE”, this compound yielded a α-Toc level of 178 ± 13 percent control.
